Where two headings read alike, the source gives them in different places. Each block holds one molecule with its values, some of them ahead of it.
Key:
AURKC = biological target: T1, AURKC (Homo sapiens, UniProt Q9UQB9); assay: NanoBRET assay in HEK293T cells; assay type: cell-based; settings: NanoBRET, Figure 6B, read-out: affinity to intracellular AURKC
T1 construct: full-length wild-type AURKA, AURKB, and AURKC were obtained as plasmids cloned in frame with a C-terminal NanoLuc-fusion; host or cells: HEK293T
T1 sequence (Q9UQB9 1-309): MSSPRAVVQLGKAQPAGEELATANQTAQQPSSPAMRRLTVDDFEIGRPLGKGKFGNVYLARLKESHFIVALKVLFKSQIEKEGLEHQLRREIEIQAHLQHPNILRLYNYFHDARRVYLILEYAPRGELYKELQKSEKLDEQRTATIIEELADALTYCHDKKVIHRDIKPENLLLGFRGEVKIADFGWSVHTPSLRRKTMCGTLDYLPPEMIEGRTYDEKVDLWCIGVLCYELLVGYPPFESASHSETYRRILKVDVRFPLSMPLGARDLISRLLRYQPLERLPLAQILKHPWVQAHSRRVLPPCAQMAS

AURKA = biological target: T2, AURKA (Homo sapiens, UniProt O14965); assay: NanoBRET assay in HEK293T cells; assay type: cell-based; settings: NanoBRET
T2 construct: full-length wild-type AURKA, AURKB, and AURKC were obtained as plasmids cloned in frame with a C-terminal NanoLuc-fusion; host or cells: HEK293T
T2 sequence (O14965 1-403): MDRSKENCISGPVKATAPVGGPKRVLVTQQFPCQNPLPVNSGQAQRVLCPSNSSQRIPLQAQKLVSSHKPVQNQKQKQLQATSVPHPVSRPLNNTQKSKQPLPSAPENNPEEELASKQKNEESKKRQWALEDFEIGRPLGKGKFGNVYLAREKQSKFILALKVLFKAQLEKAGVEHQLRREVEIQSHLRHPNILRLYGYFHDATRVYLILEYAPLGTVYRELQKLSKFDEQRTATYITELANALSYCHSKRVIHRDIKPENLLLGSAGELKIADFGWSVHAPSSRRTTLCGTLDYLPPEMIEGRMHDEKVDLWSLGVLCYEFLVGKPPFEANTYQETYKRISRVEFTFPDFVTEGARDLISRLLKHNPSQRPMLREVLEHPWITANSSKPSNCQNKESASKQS

MCD4 cells [1] = assay: MTS assay (cell viability); assay type: cell-based, mouse; settings: 30 µM, 10 µM or 1 µM, 1 h; compared to untreated cells
AURKB = AURKB (Homo sapiens, UniProt Q96GD4); assay: NanoBRET assay in HEK293T cells; assay type: cell-based; design: full-length wild-type AURKA, AURKB, and AURKC were obtained as plasmids cloned in frame with a C-terminal NanoLuc-fusion; host or cells: HEK293T; settings: NanoBRET
AURKB, sequence (Q96GD4 whole entry, the tested form may be a part): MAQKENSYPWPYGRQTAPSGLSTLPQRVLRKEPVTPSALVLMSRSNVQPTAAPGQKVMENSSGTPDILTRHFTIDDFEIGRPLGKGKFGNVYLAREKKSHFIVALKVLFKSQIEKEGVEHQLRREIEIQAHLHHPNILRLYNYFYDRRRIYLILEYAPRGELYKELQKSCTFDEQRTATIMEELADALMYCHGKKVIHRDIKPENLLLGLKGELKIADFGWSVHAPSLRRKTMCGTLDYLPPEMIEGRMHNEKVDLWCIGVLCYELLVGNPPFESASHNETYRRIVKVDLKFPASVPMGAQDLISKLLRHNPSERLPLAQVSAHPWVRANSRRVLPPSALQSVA

CAMKK2 = biological target: T3, CAMKK2 (Homo sapiens, UniProt Q96RR4); assay: Thermal shift assay; assay type: binding; settings: read-out: ΔTm CAMKK2
T3 construct: purchased in-house thermal shift (DSF) kinase panel (SGC Frankfurt); Promega NanoBRET for AURKA/B/C
T3 sequence (Q96RR4 161-449): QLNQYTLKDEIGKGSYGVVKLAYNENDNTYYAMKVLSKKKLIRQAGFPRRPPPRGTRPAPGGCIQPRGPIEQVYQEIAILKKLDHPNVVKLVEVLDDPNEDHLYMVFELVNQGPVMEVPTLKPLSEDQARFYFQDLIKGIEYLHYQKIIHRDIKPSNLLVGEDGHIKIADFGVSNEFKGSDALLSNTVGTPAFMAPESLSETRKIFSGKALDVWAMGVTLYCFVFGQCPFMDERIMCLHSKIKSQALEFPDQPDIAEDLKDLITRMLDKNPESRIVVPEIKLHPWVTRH

STK17A = biological target: T4, STK17A (Homo sapiens, UniProt Q9UEE5); assay: Thermal shift assay; assay type: binding; settings: read-out: ΔTm STK17A
T4 construct: purchased in-house thermal shift (DSF) kinase panel (SGC Frankfurt); Promega NanoBRET for AURKA/B/C
T4 sequence (Q9UEE5 61-321): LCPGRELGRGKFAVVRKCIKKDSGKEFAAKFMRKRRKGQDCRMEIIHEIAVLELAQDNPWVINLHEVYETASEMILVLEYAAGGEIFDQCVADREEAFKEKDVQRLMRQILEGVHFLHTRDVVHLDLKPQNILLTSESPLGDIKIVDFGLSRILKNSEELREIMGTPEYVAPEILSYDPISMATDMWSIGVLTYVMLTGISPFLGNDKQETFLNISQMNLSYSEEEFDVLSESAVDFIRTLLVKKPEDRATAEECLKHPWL

STK3 = biological target: T5, STK3 (Homo sapiens, UniProt Q13188); assay: Thermal shift assay; assay type: binding; settings: read-out: ΔTm STK3
T5 construct: purchased in-house thermal shift (DSF) kinase panel (SGC Frankfurt); Promega NanoBRET for AURKA/B/C
T5 sequence (Q13188 16-313): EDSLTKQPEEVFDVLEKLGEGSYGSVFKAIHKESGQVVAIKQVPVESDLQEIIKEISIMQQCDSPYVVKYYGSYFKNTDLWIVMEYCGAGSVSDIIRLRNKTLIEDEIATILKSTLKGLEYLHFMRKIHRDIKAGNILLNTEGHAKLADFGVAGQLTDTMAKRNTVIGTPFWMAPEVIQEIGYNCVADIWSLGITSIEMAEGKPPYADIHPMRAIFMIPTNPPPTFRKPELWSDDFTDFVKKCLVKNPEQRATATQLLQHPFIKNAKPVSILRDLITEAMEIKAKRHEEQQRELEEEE

STK39 = biological target: T6, STK39 (Homo sapiens, UniProt Q9UEW8); assay: Thermal shift assay; assay type: binding; settings: read-out: ΔTm STK39
T6 construct: purchased in-house thermal shift (DSF) kinase panel (SGC Frankfurt); Promega NanoBRET for AURKA/B/C

[2] = tested on: CFL1 phosphorylation in MCD4 cells; assay: CFL1 phosphorylation, Western blotting; assay type: cell-based, mouse; settings: compound 30 µM, 1 h
primary IMCD cells [3] = assay: AQP2 redistribution, immunofluorescence microscopy; settings: compound 20 µM, 1 h (Aurora-A inhibitor I 1-30 µM), AVP 100 nM, 30 min
MCD4 cells [4] = assay: AQP2 redistribution, immunofluorescence microscopy; settings: compound 30 µM, 1 h (Aurora-A inhibitor I 1-30 µM), forskolin 30 µM, 30 min
MCD4 cells [5] = assay: F-actin stress fiber staining (phalloidin); assay type: cell-based, mouse; settings: compound 30 µM, 1 h
primary IMCD cells [6] = assay: F-actin stress fiber staining (phalloidin); assay type: cell-based, rat; settings: compound 20 µM, 1 h
M12 cells = tested on: M12 cells; design: method as in PMID 25090971; settings: cited from earlier work
[7] = tested on: complex of AURKA and TPX2; design: method as in PMID 26732741; settings: cited from earlier work
[8] = n = 2, mean, Figure 6B, read-out: affinity to intracellular AURKA
[9] = HEK293T cells overexpressing the kinase, Table 2, read-out: AURKA IC50
[10] = HEK293T cells overexpressing the kinase, Table 2, read-out: AURKB IC50

IC50 (AURKC; n = 2, mean): 12.9 µM | IC50 (AURKA; [8]): 0.24 µM | IC50 (AURKB; n = 2, mean, Figure 6B, read-out: affinity to intracellular AURKB): 16.8 µM
Structure (SMILES): COCCNC(=O)Cc1ccc(Nc2ncc(F)c(Nc3ccc(C(=O)Nc4ccccc4Cl)cc3)n2)cc1 [ERJ2-05]
viability of MCD4 cells (MCD4 cells [1]): partly increased

IC50 (AURKC; n = 2, bounds): > 50 µM | IC50 (AURKA; [9]): 22.8 µM | IC50 (AURKB; [10]): > 50 µM
Structure (SMILES): O=C(O)Cc1ccc(Nc2ncc(F)c(Nc3ccc(C(=O)Nc4ccccc4)cc3)n2)cc1 [ERJ2-10]

IC50 (AURKC; n = 2, mean): 17 µM | IC50 (AURKA; [9]): 0.237 µM | IC50 (AURKB; [10]): 16.1 µM
Structure (SMILES): O=C(Cc1ccc(Nc2ncc(F)c(Nc3ccc(C(=O)Nc4ccccc4Cl)cc3)n2)cc1)NCCO [ERJ2-08]
viability of MCD4 cells (MCD4 cells [1]): partly increased

IC50 (AURKC; n = 2, bounds): > 50 µM | IC50 (AURKA; [8]): 1.33 µM | IC50 (AURKB; [10]): > 50 µM
Structure (SMILES): O=C(O)Cc1ccc(Nc2ncc(F)c(Nc3ccc(C(=O)Nc4ccccc4Cl)cc3)n2)cc1 [ERJ2-02]

IC50 (AURKC; n = 2, bounds): > 50 µM | IC50 (AURKA; [9]): > 50 µM | IC50 (AURKB; [10]): > 50 µM
Structure (SMILES): CCN1CCN(C(=O)Cc2ccc(Nc3ncc(F)c(Nc4ccc(C(=O)NCCN5CCCC5)cc4)n3)cc2)CC1 [ERJ2-16]

Structure (SMILES): CN[C@@H]1C[C@H]2O[C@@](C)([C@@H]1OC)n1c3ccccc3c3c4c(c5c6ccccc6n2c5c31)C(=O)NC4 [Staurosporine, reference compound]
ΔTm at 10 µM (CAMKK2): 24.2 °C | ΔTm at 10 µM (STK17A): 12.9 °C | ΔTm at 10 µM (STK3): 13.7 °C | ΔTm at 10 µM (STK39): 9.9 °C

IC50 (AURKC; n = 2, bounds): > 50 µM | IC50 (AURKA; [9]): 37.3 µM | IC50 (AURKB; [10]): > 50 µM
Structure (SMILES): CCN1CCN(C(=O)Cc2ccc(Nc3ncc(F)c(Nc4ccc(C(=O)N5CCN(CC)CC5)cc4)n3)cc2)CC1 [ERJ2-13]

IC50 (AURKB; [10]): > 50 µM
Structure (SMILES): O=C(O)c1ccc(Nc2ncc(F)c(Nc3ccc(C(=O)O)cc3)n2)cc1 [ERJ2-09]

Structure (SMILES): CCN(CCO)CCCOc1ccc2c(Nc3cc(CC(=O)Nc4cccc(F)c4)n[nH]3)ncnc2c1 [Barasertib-HQPA, reference compound]
CFL1 phosphorylation ([2]; absence and presence of forskolin): no effect | inhibition of the AVP-induced redistribution of AQP2 to the plasma membrane (primary IMCD cells [3]): No inhibitory effect | inhibition of the forskolin-induced redistribution of AQP2 to the plasma membrane (MCD4 cells [4]): did not | effect on actin stress fibers (MCD4 cells [5]): resembled those of the control cells | effect on actin stress fibers (primary IMCD cells [6]): resembled those of the control cells

IC50 (AURKC; n = 2, bounds): > 50 µM | IC50 (AURKA; [9]): 1.08 µM | IC50 (AURKB; [10]): > 50 µM
Structure (SMILES): O=C(Nc1ccccc1Cl)c1ccc(Nc2nc(Nc3ccc(CC(=O)N4CCOCC4)cc3)ncc2F)cc1 [ERJ2-03]
inhibition of the forskolin-induced redistribution of AQP2 to the plasma membrane (MCD4 cells [4]): not being an inhibitor | viability of MCD4 cells (MCD4 cells [1]): reduced by 10 or 30 µM

Structure (SMILES): COc1cc(Nc2ncc3c(n2)-c2ccc(Cl)cc2C(c2c(F)cccc2OC)=NC3)ccc1C(=O)O [Alisertib, reference compound]
CFL1 phosphorylation in resting cells ([2]; no forskolin): not reduced | inhibition of the AVP-induced redistribution of AQP2 to the plasma membrane (primary IMCD cells [3]): significantly inhibited | inhibition of the forskolin-induced redistribution of AQP2 to the plasma membrane (MCD4 cells [4]): significantly inhibited | phosphorylation of CFL1 (M12 cells): increased | effect on actin stress fibers (MCD4 cells [5]): promoted or maintained the formation of actin stress fibers | decrease of affinity for AURKA in the presence of TPX2 [7]: 5.8 fold | effect on actin stress fibers (primary IMCD cells [6]): promoted or maintained the formation of actin stress fibers

From PMC8776063, “Aurora Kinase A Is Involved in Controlling the Localization of Aquaporin-2 in Renal Principal Cells” (International Journal of Molecular Sciences, 2022)
